Measured values from ChEMBL document CHEMBL3885861, “Open TG-GATES”.

Species on record: Rattus norvegicus
Assay: Open TG-GATES - Regimen: Single
Assay type: toxicity, organism-based, Sprague-Dawley
Parameters: regimen Single, gender Male, age 6 weeks
Settings: in vivo, po, 5 mg/kg, route gavage; for TG / TP / gamma-GTP / A/G / ALP / ALT / AST / BUN / CRE / Ca / Cl / DBIL / GLC / IP / K / LDH / Na / PL / RALB / TBIL / TC: tissue Plasma; for APTT / Bas / Eos / Fbg / Hb / Ht / Lym / MCH / MCHC / MCV / Mono / Neu / PT / Plat / RBC / Ret / WBC: tissue Blood; for KIDNEY_L / KIDNEY_R / KIDNEY_TOTAL: tissue Kidney; for LIVER: tissue Liver

Q: With `COc1ccc2c(c1)c(CC(=O)O)c(C)n2C(=O)c1ccc(Cl)cc1` [INDOMETHACIN] as the molecule, how does the TG (3 h, dose level Low) read?
A: 59.6 mg/dL

Q: What about the TP (3 h, dose level Low) of the same molecule?
A: 5.4 g/dL

Q: What about the gamma-GTP (3 h, dose level Low) of the same molecule?
A: 1 IU/L

Q: What about the TERMINAL_BW (6 h, dose level High) of the same molecule?
A: 202.4 g

Q: What about the TERMINAL_BW (6 h, dose level Low) of the same molecule?
A: 222.1 g

Q: And the APTT (6 h, dose level High)?
A: 16.9 s

Q: And the Bas (6 h, dose level High)?
A: 0%

Q: And the Eos (6 h, dose level High)?
A: 0.8%

Q: And the Fbg (6 h, dose level High)?
A: 205.2 mg/dL

Q: What about the Hb (6 h, dose level High) of the same molecule?
A: 12.7 g/dL

Q: And the Ht (6 h, dose level High)?
A: 38.6%

Q: And the Lym (6 h, dose level High)?
A: 69.4%

Q: What about the MCH (6 h, dose level High) of the same molecule?
A: 21.3 pg

Q: And the MCHC (6 h, dose level High)?
A: 32.8%

Q: What about the MCV (6 h, dose level High) of the same molecule?
A: 64.9 fL

Q: What about the Mono (6 h, dose level High) of the same molecule?
A: 13%

Q: What about the Neu (6 h, dose level High) of the same molecule?
A: 16.8%

Q: And the PT (6 h, dose level High)?
A: 12.8 s

Q: And the Plat (6 h, dose level High)?
A: 112.7 x10_4/uL

Q: What about the RBC (6 h, dose level High) of the same molecule?
A: 594.6 x10_4/ul

Q: And the Ret (6 h, dose level High)?
A: 10.3%

Q: What about the WBC (6 h, dose level High) of the same molecule?
A: 87.2 x10_2/uL

Q: What about the APTT (6 h, dose level Low) of the same molecule?
A: 18.4 s

Q: And the Eos (6 h, dose level Low)?
A: 0.4%

Q: And the Fbg (6 h, dose level Low)?
A: 230 mg/dL

Q: What about the Hb (6 h, dose level Low) of the same molecule?
A: 13.9 g/dL

Q: What about the Ht (6 h, dose level Low) of the same molecule?
A: 38%

Q: What about the Lym (6 h, dose level Low) of the same molecule?
A: 79.6%

Q: What about the MCH (6 h, dose level Low) of the same molecule?
A: 22.6 pg

Q: And the MCHC (6 h, dose level Low)?
A: 36.4%

Q: What about the MCV (6 h, dose level Low) of the same molecule?
A: 62 fL

Q: And the Mono (6 h, dose level Low)?
A: 2.8%

Q: What about the Neu (6 h, dose level Low) of the same molecule?
A: 15.4%

Q: What about the PT (6 h, dose level Low) of the same molecule?
A: 12.4 s

Q: What about the Plat (6 h, dose level Low) of the same molecule?
A: 118.2 x10_4/uL

Q: And the RBC (6 h, dose level Low)?
A: 613.2 x10_4/ul

Q: What about the Ret (6 h, dose level Low) of the same molecule?
A: 8%

Q: What about the WBC (6 h, dose level Low) of the same molecule?
A: 100.8 x10_2/uL

Q: And the KIDNEY_L (6 h, dose level High)?
A: 0.9 g

Q: What about the KIDNEY_R (6 h, dose level High) of the same molecule?
A: 0.9 g

Q: What about the KIDNEY_TOTAL (6 h, dose level High) of the same molecule?
A: 1.9 g

Q: What about the KIDNEY_L (6 h, dose level Low) of the same molecule?
A: 1 g

Q: What about the KIDNEY_R (6 h, dose level Low) of the same molecule?
A: 1 g

Q: And the LIVER (6 h, dose level High)?
A: 9 g

Q: What about the LIVER (6 h, dose level Low) of the same molecule?
A: 9.1 g

Q: What about the A/G (6 h, dose level High) of the same molecule?
A: 1.9

Q: And the ALP (6 h, dose level High)?
A: 908.6 IU/L

Q: And the ALT (6 h, dose level High)?
A: 35.6 IU/L

Q: And the AST (6 h, dose level High)?
A: 69 IU/L

Q: What about the BUN (6 h, dose level High) of the same molecule?
A: 13.6 mg/dL

Q: What about the CRE (6 h, dose level High) of the same molecule?
A: 0.5 mg/dL

Q: What about the Ca (6 h, dose level High) of the same molecule?
A: 10.2 mg/dL

Q: What about the Cl (6 h, dose level High) of the same molecule?
A: 108.2 meq/L

Q: And the DBIL (6 h, dose level High)?
A: 0.014 mg/dL

Q: What about the GLC (6 h, dose level High) of the same molecule?
A: 194.8 mg/dL

Q: What about the IP (6 h, dose level High) of the same molecule?
A: 9.4 mg/dL

Q: And the K (6 h, dose level High)?
A: 5.1 meq/L

Q: What about the LDH (6 h, dose level High) of the same molecule?
A: 186.4 IU/L

Q: What about the Na (6 h, dose level High) of the same molecule?
A: 137.4 meq/L

Q: What about the PL (6 h, dose level High) of the same molecule?
A: 120 mg/dL

Q: And the RALB (6 h, dose level High)?
A: 3.8 g/dL

Q: And the TBIL (6 h, dose level High)?
A: 0.3 mg/dL

Q: And the TC (6 h, dose level High)?
A: 68.4 mg/dL

Q: And the TG (6 h, dose level High)?
A: 48 mg/dL

Q: And the TP (6 h, dose level High)?
A: 5.8 g/dL

Q: What about the gamma-GTP (6 h, dose level High) of the same molecule?
A: 1.2 IU/L

Q: What about the A/G (6 h, dose level Low) of the same molecule?
A: 1.5

Q: And the ALP (6 h, dose level Low)?
A: 938.4 IU/L

Q: And the ALT (6 h, dose level Low)?
A: 36.2 IU/L

Q: What about the AST (6 h, dose level Low) of the same molecule?
A: 75.8 IU/L

Q: What about the BUN (6 h, dose level Low) of the same molecule?
A: 12 mg/dL

Q: And the CRE (6 h, dose level Low)?
A: 0.4 mg/dL

Q: What about the Ca (6 h, dose level Low) of the same molecule?
A: 10.4 mg/dL

Q: What about the Cl (6 h, dose level Low) of the same molecule?
A: 103.2 meq/L

Q: And the DBIL (6 h, dose level Low)?
A: 0.076 mg/dL

Q: And the GLC (6 h, dose level Low)?
A: 197.2 mg/dL

Q: What about the IP (6 h, dose level Low) of the same molecule?
A: 9.2 mg/dL

Q: What about the K (6 h, dose level Low) of the same molecule?
A: 4 meq/L

Q: What about the LDH (6 h, dose level Low) of the same molecule?
A: 231 IU/L

Q: And the Na (6 h, dose level Low)?
A: 140.8 meq/L

Q: And the PL (6 h, dose level Low)?
A: 135.2 mg/dL

Q: And the RALB (6 h, dose level Low)?
A: 3.3 g/dL

Q: And the TBIL (6 h, dose level Low)?
A: 0.1 mg/dL

Q: And the TC (6 h, dose level Low)?
A: 77.4 mg/dL

Q: What about the TG (6 h, dose level Low) of the same molecule?
A: 62.8 mg/dL

Q: What about the TP (6 h, dose level Low) of the same molecule?
A: 5.4 g/dL

Q: And the gamma-GTP (6 h, dose level Low)?
A: 0.8 IU/L

Q: And the TERMINAL_BW (9 h, dose level High)?
A: 198.4 g

Q: What about the TERMINAL_BW (9 h, dose level Low) of the same molecule?
A: 221 g

Q: And the APTT (9 h, dose level High)?
A: 16.9 s

Q: And the Bas (9 h, dose level High)?
A: 0%

Q: What about the Eos (9 h, dose level High) of the same molecule?
A: 0.6%

Q: What about the Fbg (9 h, dose level High) of the same molecule?
A: 213.6 mg/dL

Q: And the Hb (9 h, dose level High)?
A: 13.2 g/dL

Q: And the Ht (9 h, dose level High)?
A: 39.6%

Q: What about the Lym (9 h, dose level High) of the same molecule?
A: 84.2%

Q: What about the MCH (9 h, dose level High) of the same molecule?
A: 21.6 pg

Q: And the MCHC (9 h, dose level High)?
A: 33.3%

Q: What about the MCV (9 h, dose level High) of the same molecule?
A: 65 fL

Q: And the Mono (9 h, dose level High)?
A: 7.8%

Q: What about the Neu (9 h, dose level High) of the same molecule?
A: 7.4%

Q: What about the PT (9 h, dose level High) of the same molecule?
A: 12.6 s

Q: And the Plat (9 h, dose level High)?
A: 102.6 x10_4/uL

Q: What about the RBC (9 h, dose level High) of the same molecule?
A: 609.4 x10_4/ul

Q: What about the Ret (9 h, dose level High) of the same molecule?
A: 9.6%

Q: What about the WBC (9 h, dose level High) of the same molecule?
A: 107 x10_2/uL

Q: And the APTT (9 h, dose level Low)?
A: 18.2 s

Q: And the Eos (9 h, dose level Low)?
A: 0.4%

Q: What about the Fbg (9 h, dose level Low) of the same molecule?
A: 228.6 mg/dL

Q: And the Hb (9 h, dose level Low)?
A: 13.7 g/dL

Q: And the Ht (9 h, dose level Low)?
A: 37.7%

Q: What about the Lym (9 h, dose level Low) of the same molecule?
A: 76.4%

Q: And the MCH (9 h, dose level Low)?
A: 22.2 pg

Q: And the MCHC (9 h, dose level Low)?
A: 36.4%

Q: What about the MCV (9 h, dose level Low) of the same molecule?
A: 60.8 fL

Q: And the Mono (9 h, dose level Low)?
A: 3%

Q: What about the Neu (9 h, dose level Low) of the same molecule?
A: 18%

Q: And the PT (9 h, dose level Low)?
A: 12.2 s

Q: What about the Plat (9 h, dose level Low) of the same molecule?
A: 126.8 x10_4/uL

Q: And the RBC (9 h, dose level Low)?
A: 620.4 x10_4/ul

Q: And the Ret (9 h, dose level Low)?
A: 7.9%

Q: What about the WBC (9 h, dose level Low) of the same molecule?
A: 86 x10_2/uL

Q: And the KIDNEY_L (9 h, dose level High)?
A: 0.9 g

Q: What about the KIDNEY_R (9 h, dose level High) of the same molecule?
A: 0.9 g

Q: And the KIDNEY_TOTAL (9 h, dose level High)?
A: 1.9 g

Q: And the KIDNEY_R (9 h, dose level Low)?
A: 1 g

Q: What about the LIVER (9 h, dose level High) of the same molecule?
A: 8.1 g

Q: And the LIVER (9 h, dose level Low)?
A: 8.6 g

Q: And the A/G (9 h, dose level High)?
A: 2.5

Q: And the ALP (9 h, dose level High)?
A: 961.6 IU/L

Q: And the ALT (9 h, dose level High)?
A: 34.6 IU/L

Q: And the AST (9 h, dose level High)?
A: 66 IU/L

Q: And the BUN (9 h, dose level High)?
A: 12.6 mg/dL

Q: What about the CRE (9 h, dose level High) of the same molecule?
A: 0.5 mg/dL

Q: And the Ca (9 h, dose level High)?
A: 10.1 mg/dL

Q: What about the Cl (9 h, dose level High) of the same molecule?
A: 105.6 meq/L

Q: What about the DBIL (9 h, dose level High) of the same molecule?
A: 0.042 mg/dL

Q: And the GLC (9 h, dose level High)?
A: 183.4 mg/dL

Q: What about the IP (9 h, dose level High) of the same molecule?
A: 9.8 mg/dL

Q: What about the K (9 h, dose level High) of the same molecule?
A: 5.3 meq/L

Q: What about the LDH (9 h, dose level High) of the same molecule?
A: 192.8 IU/L

Q: And the Na (9 h, dose level High)?
A: 137.2 meq/L

Q: What about the PL (9 h, dose level High) of the same molecule?
A: 117 mg/dL

Q: And the RALB (9 h, dose level High)?
A: 3.9 g/dL

Q: And the TBIL (9 h, dose level High)?
A: 0.5 mg/dL

Q: What about the TC (9 h, dose level High) of the same molecule?
A: 65.6 mg/dL

Q: And the TG (9 h, dose level High)?
A: 34.4 mg/dL

Q: What about the TP (9 h, dose level High) of the same molecule?
A: 5.4 g/dL
